Assays:
[1] = tested on: MRI-H-121 human renal tumor xenograft; experiment: Aplidine with sunitinib, MRI-H-121 xenograft in athymic nude mice (Example 2); format: in vivo; conditions: doses and schedules tested
Protocol: (§1) Female athymic nude mice (Harlan Sprague Dawley, Madison, Wis.) were utilized for all experiments. Mice were implanted with tumor fragments or a cell suspension when mice were 5 weeks of age. Animals were housed in ventilated rack caging, 5 mice per cage, with food and water ad libitum. The mice were acclimated for 1 week prior to being implanted with tumor fragments or cell suspensions.
(§2) Tumor measurements were determined as disclosed in Example 1.
(§3) Body weights were recorded on treatment days and when tumor sizes were measured. In those days wherein the two drugs were administered the same day, the combination therapy groups were treated by co-administering the two drugs at the same time, with no attempt to sequence the treatments.
(§4) Aplidine was provided in the form of vials of lyophilized aplidine powder which was reconstituted in Cremophor EL/ethanol/water (CEW) 15/15/70 to a concentration of 0.5 mg/ml. The aplidine solution in CEW was diluted in 0.9% Saline to the dosing formulation concentrations, being the final proportion of CEW of 0.18/0.18/0.84. […]
(§5) Tumor size measurements were recorded twice weekly from the treatment initiation until the termination of the study.
(§6) Mean, standard deviation and standard error of the mean were determined for tumor volume for all animal groups at all assessments. […]

[2] = mouse, in vivo
[3] = tested on: CAKI-1 human renal tumor xenograft; experiment: Aplidine with sunitinib, CAKI-1 xenograft in athymic nude mice (Example 2); format: in vivo; conditions: doses and schedules tested
Protocol: as §1
Cells from in vitro passage 4-20 were implanted SC into study mice: 5×10^6 cells/mouse in 0.2 ml 50% Matrigel/50% medium without antibiotics or serum, using a 23 G needle and 1 cc syringe. Bacterial cultures were performed on aliquots of the cells prepared for implantation.
as §2
Body weights were recorded on treatment days and when tumor sizes were measured. In those days wherein the two drugs were administered the same day, the combination therapy groups were treated by co-administering the two drugs at the same time, with no attempt to sequence the treatments. […]
as §5, §6

[4] = tested on: A498 human renal tumor xenograft; experiment: Aplidine with sunitinib, A498 xenograft in athymic nude mice (Example 2); format: in vivo; conditions: doses tested; sunitinib 40 mg/kg
Protocol: as §1, §2, §3, §4, §5, §6

With `CCN(CC)CCNC(=O)c1c(C)[nH]c(/C=C2\C(=O)Nc3ccc(F)cc32)c1C` [sunitinib] the “antitumor activity as single agent (monotherapy)” value (shortened to “antitumor activity”) [1] was “refractory”, the “effect on body weight / toxicity” value [2] was “did not cause a significant decline in mean body weight” and the “antitumor activity” value [3] was “inactive”. For the same molecule, the “antitumor activity” value [4] was “did not reach the NCI criteria”.

Reference: patent US20110009335A1, “Anticancer Treatments” (priority 2008, published 2011)
